Assay [1] has as its target Human PDE1B1 (Homo sapiens, UniProt Q01064). Nature of the assay: Phosphodiesterase Assay (SPA). The format is biochemical.
In assay [2] the target is BRD4 (Homo sapiens, UniProt O60885). Nature of the assay: Bromodomain-Containing Protein 4 (BRD4) fluorescence polarization Binding Assay. As to the method: 45 37 °C for 30 min (DAT) or 60 min (NET and SER T). The plate is transferred to the FLIPR Tetra®
46 instrument and the fluorescence of each well was measured (Ex 470- 495 […]).
47 The level of fluores cenc e measured dire ctly relates to the level of uptake of the dye labelled amine,
48 with a reduction in levels being related to an inhibition of the respective transporter.
49 Phosphodiesterase Assays
50 The phosphodiesteras e (P DE) assays m easure the conversion of 3’, 5 ’ -[3H ] cAMP to 5’-[3H] AMP
51 (for PDE 3A1 and 4D3) or 3’, 5’-[3H] cGMP to 5’-[3H] GMP (for 5A1) by the relevant PDE
52 enzyme subtype. Yttrium silicate (YSi) scintillation proximity (SPA) beads bind selectively to 5’-
53 [3H] AMP or 5’-[3H] GMP, with the magnitude of radioactive counts being directly related to
54 PDE enzymatic activity. The ass ay was performed in white walled op aque b ottom 384-well plates.
55 Test compound (1 µL) in dimethyl sulfoxide was added to each well. Enzyme solution was then […]
60 Waltham, MA). Followin g an additional 8 h incubation period the plates were read on a MicroBeta […]
71 temperature fluorescence polarization measurements were made using an Envision plate reader […]
76 of the product color, measured at 405 nm, is proportionate to the enzyme activity in the sample. […]
81 read at the 20 min time point. […]
(In fluorescence polarisation assays a small probe gives low polarisation when free and higher when bound to something large.)

Assay [3] concerns the target Nav1.5 (Peak) (Homo sapiens, UniProt Q14524). Nature of the assay: Nav1.5 (peak current) ion channel profiling, Qube384 automated patch clamp (standard and extended protocol). In kind it is cell-based. The text has this:
105 hERG, Nav1.5 and Cav1.2 Ion Channel Profiling
106 Ionic curr ents wer e evalu ated in the whole-cell con figuration using the Qube384 automated planar
107 patch clamp platform (Sophion Bioscience A/S, Ballerup, Denmark). […]
116 HEPES, 2 Na2ATP, pH 7.2, 305 mOsM. […]
126 Nav1.5 current, from a holding potential of - 80 mV, a 200 ms prepulse to - 120 mV was used to
127 homogenize channel inactivation, followed by a 40 ms step to a test potential of - 15 mV.
128 Membrane potential was further depolarized to +40 mV for 200 ms to completely inactivate the
129 peak Nav1.5 current, followed by a ramp from +40 mV to - 80 mV (-1.2 mV/ms). This voltage
130 pattern was repeated at 0.1 Hz, with peak Nav1.5 defined as the maximum current during the step
131 to - 15 mV. All studies were conducted at 23° C.
132 Compounds were dissol ved and initially diluted in dimethyl sulfoxide (DMSO), with a final
133 dilution in external solution to generate final working concent rations. The final DMSO
134 concentration in all experiments was 0.33% (v/v).
135 For all protocols three vehicle periods each lasting 5 minutes were applied to establish a stable
136 baseline. For the standard protocol this was followed by the addition of increasing concentrations
137 of test compound, with each exposure lasting 5 minutes. For the “extended” protocol following
138 the three- vehi cle additional each well subsequentl y received a single concentration of compound.
139 This application was repeated three times for each well, via a flowthrough addition where the
140 solution was replaced wi th the same compound concentration with each addition. Each exposure
142 Patch clamp data were analyzed using Assay Software 6.4.72 (Sophion Bioscience A/S, Ballerup,
143 Denmark). Current amplitudes were determined by averaging the last 4 currents under each test
144 condition. The percentage inhibition of each compound was determined by taking the ratio of
145 current amplitude measured in the presence of various concentrations of the test compound
146 (ICompound) versus the vehicle control current (IVehicle):
148 A dose-response curve was generat ed and fit to the Hill equation by the Sophion Analyzer software
149 to determine an IC50 value for each compound. The minimum and the slope of the fit were free
150 fitted, with the top being fixed to 100% inhibition.
151 GABA Patch Clamp Assay
152 Compound effects on the human GABAA recepto r (α1β2γ2), stably express ed in human embryonic
153 kidney (HEK) cells, were examined in three modes of action: agonist, antagonist and positive
154 allosteric modulation (PAM) modes. Chloride currents evoked by the activation of the GABAA
155 recepto r wer e reco rded in the whole- cell patch clamp configuration with the automated Qube384®
156 platform (Sophion Bioscience A/S, Baltorpvej, Denmark). […]
In general terms: Patch clamp records ionic current or voltage across a cell membrane.

The term IC50 denotes the point on the concentration scale where inhibition reaches its midpoint.

Read-outs that look alike come from different tables or passages of the source.

Chain of Nav1.5 (Peak) (Q14524 whole entry): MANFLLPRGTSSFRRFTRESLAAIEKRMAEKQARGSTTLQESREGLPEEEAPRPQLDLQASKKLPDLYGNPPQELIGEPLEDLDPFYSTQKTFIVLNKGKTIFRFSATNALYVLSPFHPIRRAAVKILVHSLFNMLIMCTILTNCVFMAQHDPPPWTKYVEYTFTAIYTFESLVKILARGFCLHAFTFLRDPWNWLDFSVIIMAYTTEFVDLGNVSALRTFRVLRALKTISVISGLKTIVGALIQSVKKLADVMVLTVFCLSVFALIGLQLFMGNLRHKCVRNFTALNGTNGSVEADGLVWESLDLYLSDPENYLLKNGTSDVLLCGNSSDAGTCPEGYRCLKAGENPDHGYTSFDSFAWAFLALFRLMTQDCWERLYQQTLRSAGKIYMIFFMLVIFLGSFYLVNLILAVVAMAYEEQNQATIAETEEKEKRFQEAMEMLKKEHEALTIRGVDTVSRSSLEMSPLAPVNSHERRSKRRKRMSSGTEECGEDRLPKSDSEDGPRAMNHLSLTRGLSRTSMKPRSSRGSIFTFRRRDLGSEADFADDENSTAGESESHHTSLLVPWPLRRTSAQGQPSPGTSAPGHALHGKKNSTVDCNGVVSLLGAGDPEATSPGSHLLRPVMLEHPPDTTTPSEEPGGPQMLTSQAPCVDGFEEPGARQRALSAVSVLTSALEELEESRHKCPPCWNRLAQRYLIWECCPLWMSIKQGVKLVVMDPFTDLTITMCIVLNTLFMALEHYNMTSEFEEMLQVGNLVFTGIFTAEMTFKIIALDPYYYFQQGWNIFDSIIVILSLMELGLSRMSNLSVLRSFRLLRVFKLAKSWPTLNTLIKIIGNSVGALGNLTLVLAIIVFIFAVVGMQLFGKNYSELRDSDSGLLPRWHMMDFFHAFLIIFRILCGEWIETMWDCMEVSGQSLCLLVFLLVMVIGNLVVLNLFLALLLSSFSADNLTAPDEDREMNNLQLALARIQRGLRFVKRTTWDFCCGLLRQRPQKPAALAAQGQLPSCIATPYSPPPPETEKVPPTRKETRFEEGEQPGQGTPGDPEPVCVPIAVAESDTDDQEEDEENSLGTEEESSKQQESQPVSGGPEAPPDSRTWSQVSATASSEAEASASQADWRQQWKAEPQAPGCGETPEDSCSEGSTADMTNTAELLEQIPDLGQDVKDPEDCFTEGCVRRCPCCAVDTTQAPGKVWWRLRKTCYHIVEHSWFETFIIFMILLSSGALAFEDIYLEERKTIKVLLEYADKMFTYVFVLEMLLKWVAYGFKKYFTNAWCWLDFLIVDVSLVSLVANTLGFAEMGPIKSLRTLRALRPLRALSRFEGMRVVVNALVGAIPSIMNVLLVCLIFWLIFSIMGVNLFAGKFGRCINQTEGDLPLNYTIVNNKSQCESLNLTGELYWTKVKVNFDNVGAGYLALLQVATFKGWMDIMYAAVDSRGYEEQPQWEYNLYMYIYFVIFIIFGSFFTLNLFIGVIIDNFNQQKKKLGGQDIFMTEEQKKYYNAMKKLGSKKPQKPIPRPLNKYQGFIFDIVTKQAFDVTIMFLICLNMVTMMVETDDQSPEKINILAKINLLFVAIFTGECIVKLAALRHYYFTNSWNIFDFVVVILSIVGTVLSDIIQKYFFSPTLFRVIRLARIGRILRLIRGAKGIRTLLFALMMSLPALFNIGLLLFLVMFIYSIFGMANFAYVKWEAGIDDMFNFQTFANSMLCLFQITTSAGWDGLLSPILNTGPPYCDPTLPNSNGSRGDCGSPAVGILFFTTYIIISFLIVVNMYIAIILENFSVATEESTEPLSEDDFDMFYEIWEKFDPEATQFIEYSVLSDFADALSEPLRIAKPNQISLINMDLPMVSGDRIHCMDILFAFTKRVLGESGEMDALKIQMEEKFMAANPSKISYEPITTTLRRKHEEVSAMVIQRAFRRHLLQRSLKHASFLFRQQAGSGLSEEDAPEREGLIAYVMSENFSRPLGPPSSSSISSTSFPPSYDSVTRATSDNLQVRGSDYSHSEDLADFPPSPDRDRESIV
Chain of Human PDE1B1 (Q01064 whole entry): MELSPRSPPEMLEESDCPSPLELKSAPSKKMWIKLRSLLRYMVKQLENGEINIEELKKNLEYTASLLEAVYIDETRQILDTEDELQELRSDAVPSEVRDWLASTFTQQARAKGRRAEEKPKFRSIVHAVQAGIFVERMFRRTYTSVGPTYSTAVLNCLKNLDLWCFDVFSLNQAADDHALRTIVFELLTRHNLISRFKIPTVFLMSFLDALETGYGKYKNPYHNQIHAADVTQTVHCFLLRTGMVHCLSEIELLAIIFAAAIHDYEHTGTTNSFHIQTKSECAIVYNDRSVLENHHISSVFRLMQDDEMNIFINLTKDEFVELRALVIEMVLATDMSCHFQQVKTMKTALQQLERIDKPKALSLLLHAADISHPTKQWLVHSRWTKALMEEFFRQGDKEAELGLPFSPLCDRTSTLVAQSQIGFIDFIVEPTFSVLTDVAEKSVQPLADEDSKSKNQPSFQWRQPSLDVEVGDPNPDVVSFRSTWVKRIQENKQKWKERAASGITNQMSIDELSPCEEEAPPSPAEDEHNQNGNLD

`CCOc1cc(C)nc(N(CCOC)S(=O)(=O)c2ccc(NCc3c(F)cncc3F)nc2OC)n1` [Compound 1]: the IC50 is over 40 µM in assay [1]; over 25 µM in assay [2]; over 100000 nM in assay [3]; over 100000 nM in assay [3] (read-out: Ion Channel Extended Protocol IC50 (nM), Period 1st, Nav1.5 (Peak), extended protocol, 1st period); over 100000 nM in assay [3] (read-out: Ion Channel Extended Protocol IC50 (nM), Period 2nd, Nav1.5 (Peak), extended protocol, 2nd period); over 100000 nM in assay [3] (read-out: Ion Channel Extended Protocol IC50 (nM), Period 3rd, Nav1.5 (Peak), extended protocol, 3rd period).

Values taken from paper PMC10517971, “An inverse agonist of orphan receptor GPR61 acts by a G protein-competitive allosteric mechanism” (Nature Communications, 2023).
